According to patent US11331299B2, “Medicinal use of serrulatane diterpenes” (The University of Sydney, priority 2016, dated 2022):

Legend:
[1] = biological target: T1, G9a (h) (Homo sapiens, UniProt Q96KQ7); experiment: Epigenetic enzyme assay, Methyltransferases (MTs); type: biochemical; conditions: 10 μM
T1 sequence (Q96KQ7 1-1210): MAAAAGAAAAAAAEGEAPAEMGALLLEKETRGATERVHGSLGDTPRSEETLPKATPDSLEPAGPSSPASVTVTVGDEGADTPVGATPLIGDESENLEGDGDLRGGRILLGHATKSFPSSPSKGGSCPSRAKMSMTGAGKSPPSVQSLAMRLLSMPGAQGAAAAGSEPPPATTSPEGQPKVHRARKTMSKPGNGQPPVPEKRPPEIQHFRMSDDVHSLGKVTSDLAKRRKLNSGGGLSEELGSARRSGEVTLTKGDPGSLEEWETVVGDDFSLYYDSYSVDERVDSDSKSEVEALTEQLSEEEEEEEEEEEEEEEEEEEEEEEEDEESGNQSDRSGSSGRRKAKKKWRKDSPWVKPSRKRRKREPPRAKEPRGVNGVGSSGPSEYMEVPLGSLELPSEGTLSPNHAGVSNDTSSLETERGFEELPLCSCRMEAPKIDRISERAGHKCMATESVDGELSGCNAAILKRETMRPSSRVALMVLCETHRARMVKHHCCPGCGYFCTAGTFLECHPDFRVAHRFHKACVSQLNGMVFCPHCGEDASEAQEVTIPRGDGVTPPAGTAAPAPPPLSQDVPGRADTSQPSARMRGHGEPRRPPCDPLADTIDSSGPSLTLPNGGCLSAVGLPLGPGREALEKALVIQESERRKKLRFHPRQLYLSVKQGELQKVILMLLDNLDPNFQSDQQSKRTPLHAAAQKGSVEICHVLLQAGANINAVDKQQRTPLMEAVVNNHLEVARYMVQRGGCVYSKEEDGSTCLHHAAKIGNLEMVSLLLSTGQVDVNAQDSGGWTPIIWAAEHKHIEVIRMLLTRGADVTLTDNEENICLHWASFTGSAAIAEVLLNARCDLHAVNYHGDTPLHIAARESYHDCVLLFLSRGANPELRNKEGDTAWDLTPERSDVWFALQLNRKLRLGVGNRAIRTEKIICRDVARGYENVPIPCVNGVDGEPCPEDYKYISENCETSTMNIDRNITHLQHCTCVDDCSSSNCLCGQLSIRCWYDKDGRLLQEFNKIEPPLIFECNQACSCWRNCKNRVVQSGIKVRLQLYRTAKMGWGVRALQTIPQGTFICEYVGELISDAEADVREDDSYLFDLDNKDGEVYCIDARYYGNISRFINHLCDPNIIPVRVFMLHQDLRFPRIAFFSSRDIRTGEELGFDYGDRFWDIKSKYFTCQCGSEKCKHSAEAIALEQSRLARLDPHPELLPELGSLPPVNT

[2] = tested on: MLL2(h) complex; experiment: Epigenetic enzyme assay, Methyltransferases (MTs); type: biochemical, human; conditions: 10 μM
[3] = biological target: PRMT5 complex (h) (Homo sapiens, UniProt O14744); experiment: Epigenetic enzyme assay, Methyltransferases (MTs); type: biochemical; conditions: read-out: % Inhibition of Control Values
[4] = biological target: T2, Glycine N-methyltransferase (h) (Homo sapiens, UniProt Q14749); experiment: Epigenetic enzyme assay, Small molecule methyltransferases; type: biochemical; conditions: read-out: % Inhibition of Control Values
T2 sequence (Q14749 1-295): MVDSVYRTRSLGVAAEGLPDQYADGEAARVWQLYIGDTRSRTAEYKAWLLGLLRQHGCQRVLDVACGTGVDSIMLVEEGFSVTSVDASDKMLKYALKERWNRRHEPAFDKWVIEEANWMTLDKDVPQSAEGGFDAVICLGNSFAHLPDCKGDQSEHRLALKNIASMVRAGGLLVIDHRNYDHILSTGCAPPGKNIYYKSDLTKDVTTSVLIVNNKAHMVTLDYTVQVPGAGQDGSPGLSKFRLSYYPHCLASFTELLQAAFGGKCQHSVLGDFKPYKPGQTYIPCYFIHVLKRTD

[5] = biological target: T3, Chemokine CCR1 (Homo sapiens, UniProt P32246); experiment: Chemokine CCR1 radio ligand binding; conditions: assay year 2015, read-out: % Control Response
T3 construct: expressed in transfected cells; host or cells: Chem-2 cells
T3 sequence (P32246 1-355): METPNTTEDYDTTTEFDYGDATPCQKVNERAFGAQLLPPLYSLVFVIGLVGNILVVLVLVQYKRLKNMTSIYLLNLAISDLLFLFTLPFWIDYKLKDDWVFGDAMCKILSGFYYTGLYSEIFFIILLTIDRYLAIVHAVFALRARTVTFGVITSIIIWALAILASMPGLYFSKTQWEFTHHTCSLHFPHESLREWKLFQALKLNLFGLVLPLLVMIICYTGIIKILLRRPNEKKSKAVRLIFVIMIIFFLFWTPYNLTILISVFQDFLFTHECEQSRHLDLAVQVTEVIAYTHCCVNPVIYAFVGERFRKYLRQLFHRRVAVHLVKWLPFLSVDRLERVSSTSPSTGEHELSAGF
Procedure: (§1) The in vitro pharmacological studies were conducted by Eurofins PanLab (Taiwan) using the parameters shown in Table 13 with respect to appropriate literature references.

[6] = tested on: Catechol-O-Methyl Transferase (COMT); experiment: Catechol-O-Methyl Transferase (COMT); type: biochemical, Porcine; conditions: 10 μM; assay year 2015
Procedure: as §1

[7] = tested on: 43 cancer cell lines and one normal cell line; experiment: In vitro cell viability assay (intracellular ATP, 72 hour); type: cell-based; conditions: 10 μM

Sequence of PRMT5 complex (h) (O14744 whole entry): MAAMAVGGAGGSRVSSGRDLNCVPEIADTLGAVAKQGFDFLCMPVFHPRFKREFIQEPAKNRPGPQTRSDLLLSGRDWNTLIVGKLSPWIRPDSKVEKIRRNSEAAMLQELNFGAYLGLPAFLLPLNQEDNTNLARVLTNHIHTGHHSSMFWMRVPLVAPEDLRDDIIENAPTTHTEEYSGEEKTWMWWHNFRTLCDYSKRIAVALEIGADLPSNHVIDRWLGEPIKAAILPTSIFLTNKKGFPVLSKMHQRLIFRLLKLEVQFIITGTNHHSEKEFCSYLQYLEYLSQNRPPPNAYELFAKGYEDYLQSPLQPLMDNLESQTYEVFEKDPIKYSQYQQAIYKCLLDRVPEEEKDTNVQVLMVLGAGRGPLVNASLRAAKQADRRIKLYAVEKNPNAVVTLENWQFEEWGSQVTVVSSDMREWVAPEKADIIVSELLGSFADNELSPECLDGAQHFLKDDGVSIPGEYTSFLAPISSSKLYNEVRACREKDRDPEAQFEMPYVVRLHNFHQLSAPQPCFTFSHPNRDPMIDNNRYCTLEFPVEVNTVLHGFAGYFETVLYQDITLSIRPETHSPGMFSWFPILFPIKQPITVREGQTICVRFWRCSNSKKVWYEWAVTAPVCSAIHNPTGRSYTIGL
Sequence of PRMT5 complex (h) (Q9BQA1 whole entry partner): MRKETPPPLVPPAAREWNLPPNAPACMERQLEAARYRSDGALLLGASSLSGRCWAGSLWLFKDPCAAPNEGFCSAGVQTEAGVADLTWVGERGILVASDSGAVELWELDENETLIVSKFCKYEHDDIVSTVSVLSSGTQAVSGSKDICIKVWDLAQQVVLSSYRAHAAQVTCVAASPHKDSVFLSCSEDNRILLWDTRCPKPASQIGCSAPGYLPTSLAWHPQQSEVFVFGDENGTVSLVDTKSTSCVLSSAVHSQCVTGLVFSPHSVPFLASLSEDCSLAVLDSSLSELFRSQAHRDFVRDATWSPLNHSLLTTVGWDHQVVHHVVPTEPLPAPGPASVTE

Structure (SMILES): CC(C)=CCC[C@@H]1COc2c(C)cc(O)c3c2[C@H]1CC[C@H]3C [Compound 3, 5,18-epoxy-8-hydroxyserrulat-14-ene]
- % Inhibition of Control Values [1]: weaker
- inhibition at 10 µM ([1]; read-out: % Inhibition of Control Values): 49%
- % Inhibition of Control Values [2]: −15%
- inhibition at 10 µM [3]: 9%
- inhibition at 10 µM [4]: -11%
- remaining activity at 10 µM [5]: -5%
- % Control Response [6]: 3%
- effect on cell viability ([7]; all 44 cell lines): no significant effect
- % Cell growth ([7]; 4T1 (Breast Cancer)): 99%
- % Cell growth ([7]; A375 (Skin)): 100%
- % Cell growth ([7]; A-431 (Skin)): 102%
- % Cell growth ([7]; A-498 (Kidney Cancer)): 92%
- % Cell growth ([7]; ACHN (Kidney Cancer)): 105%
- % Cell growth ([7]; B16-F0 (Melanoma)): 116%
- % Cell growth ([7]; BT474 (Breast Cancer)): 108%
- % Cell growth ([7]; CT26.WT (Colon Cancer)): 103%
- % Cell growth ([7]; DLD-1 (Colon Cancer)): 101%
- % Cell growth ([7]; H33HJ-JA1 (Lymphoma)): 90%
- % Cell growth ([7]; HC-4 (Liver Cancer)): 105%
- % Cell growth ([7]; HCT-15 (Colon Cancer)): 116%
- % Cell growth ([7]; HCT-116 (Colon Cancer)): 99%
- % Cell growth ([7]; HT-29 (Colon Cancer)): 101%
- % Cell growth ([7]; Hep3B (Liver Cancer)): 84%
- % Cell growth ([7]; HepG2 (Liver Cancer)): 103%
- % Cell growth ([7]; K-562 (Leukemia)): 93%
- % Cell growth ([7]; KATO III (Stomach)): 105%
- % Cell growth ([7]; LL/2 (Non-Small Cell Lung Cancer)): 111%
- % Cell growth ([7]; LNCaP (Prostrate Cancer)): 84%
- % Cell growth ([7]; MCF7 (Breast Cancer)): 112%
- % Cell growth ([7]; MCF-7 AdrR (Breast Cancer)): 101%
- % Cell growth ([7]; MDA-MB-231 (Breast Cancer)): 100%
- % Cell growth ([7]; MDA-MB-468 (Breast Cancer)): 85%
- % Cell growth ([7]; MES-SA (Uterus)): 94%
- % Cell growth ([7]; MIA PaCa-2 (Pancreas)): 106%
- % Cell growth ([7]; MOLT-4 (Leukemia)): 77%
- % Cell growth ([7]; MV-411 (Leukemia)): 76%
- % Cell growth ([7]; NCI-H460 (Non-Small Cell Lung Cancer)): 100%
- % Cell growth ([7]; OVCAR-3 (Ovarian Cancer)): 86%
- % Cell growth ([7]; PANC-1 (Pancreas)): 116%
- % Cell growth ([7]; PC-3 (Prostrate Cancer)): 64%
- % Cell growth ([7]; PC-6 (Non-Small Cell Lung Cancer)): 96%
- % Cell growth ([7]; Ramos (Lymphoma)): 129%
- % Cell growth ([7]; SK-MEL-5 (Melanoma)): 118%
- % Cell growth ([7]; SK-N-MC (Brain)): 82%
- % Cell growth ([7]; SK-OV-3 (Ovarian Cancer)): 98%
- % Cell growth ([7]; SW-620 (Colon Cancer)): 107%
- % Cell growth ([7]; T-47D (Breast Cancer)): 119%
- % Cell growth ([7]; U937 (Lymphoma)): 105%
- % Cell growth ([7]; U-87 MG (Brain)): 111%
